Assay results as given in patent US12636277B2, “Methods for treating developmental dysplasis of hip” (WEST CHINA HOSPITAL OF SICHUAN UNIVERSITY, priority 2024, dated 2026).
Entries after “also recorded” stand apart in the source; their conditions may differ.

Legend:
DDH rat model = test: DDH rat model, iMDK injected into the hip joints (Micro CT, HE and safranin O-solid green staining, immunohistochemistry); format: in vivo, Wistar rats; conditions: 5 mg/kg body weight into hip joints for 7 days
Protocol: In some embodiments, a DDH rat model is established to illustrate the results of the present disclosure. The manner of establishing the DDH rat model is as follows.
Fifteen neonatal rodents (e.g., Wistar rats, etc.) were divided into the control group, DDH group, and iMDK group. The DDH rat model was prepared by fixing the hind limbs of rats in the DDH group and the iMDK group using medical adhesive tape, etc., and keeping the hip joints internally retracted or post-extended for 10 days. […] Neonatal rats were fed by their mothers and had normal growth, development, and nutritional status. Rats in the DDH group and the iMDK group were de-taped for 30 min daily.
After 10 days, iMDK (e.g., HY-110171, etc.) was injected into the hip joints of rats in the iMDK group at a dosage of 5 mg/kg body weight for 7 days. Rats in the DDH group and control group were injected with equal volumes of saline.
It can be seen from FIG. 4 that compared with the control group, the acetabulum of the rats in the DDH group became shallow and the hip joints were dislocated.
In some embodiments, hip specimens were stained with HE (hematoxylin-eosin staining) and safranin O-solid green SO, and the results are shown in FIGS. 5A-5B. As shown in FIGS. 5A-5B, the acetabular labrum was thickened and the articular structure was disorganized in the DDH group. The iMDK group inhibited abnormal manifestations within the joint such as thickening of the acetabular labrum and joint structure disorders.

[1] = tested on: NR3C1 and MDK expression in primary FSPC; test: Western blot of NR3C1 and MDK expression in primary FSPC after iMDK treatment; format: cell-based, human; conditions: iMDK 100 nM, DDH group FSPC in vitro, compared with the DDH group
Protocol: (§1) The samples from the DDH group were divided into two portions, one of which was treated with iMDK in vitro (DDH cell samples were added with iMDK, where the iMDK was 100 nM), and the specific dosages and treatments were not restricted by reference to commonly used inhibitor treatments or mixed cultures, etc. Cells in the control group and DDH group were cultured in the same way (the difference is no iMDK treatment). Post-treatment samples were examined for the expression levels of NR3C1 and MDK and cell proliferation of primary FSPC from different groups after treatment with the MDK inhibitor (IMDK), using Western blot and the Edu assay, etc., and the results were shown in FIGS. 3E-3F. As shown in FIGS. 3E-3F, compared with the DDH group, the expression levels of NR3C1 and MDK were reduced and the cell proliferation was reduced in the control group. Compared with the DDH group, the expression levels of NR3C1 and MDK were reduced in iMDK-treated FSPC, and cell proliferation capacity was reduced.

primary FSPC = test: Edu assay of cell proliferation of primary FSPC after iMDK treatment; format: cell-based, human; conditions: iMDK 100 nM, DDH group FSPC in vitro, compared with the DDH group
Protocol: as §1

[2] = hip specimens, rank among DDH, DDH+iMDK and control groups

Structure (SMILES): O=c1oc2ccccc2cc1-c1cn2cc(Cc3ccc(F)cc3)sc2n1 [iMDK]
- abnormal manifestations within the joint such as thickening of the acetabular labrum and joint structure disorders (HE, safranin O-solid green staining) (DDH rat model; hip specimens): inhibited; also recorded: inhibits the thickening of the acetabular labrum
- expression level of Ki67 (immunohistochemistry) (DDH rat model; [2]): highest in the DDH group, followed by the DDH+iMDK group
- expression level of NR3C1 (immunohistochemistry) (DDH rat model; [2]): highest in the DDH group, followed by the DDH+iMDK group
- hip dislocation (Micro CT) (DDH rat model; specimens 24 days after end of treatment): significant improvement
- expression level of MDK [1]: reduced
- expression level of NR3C1 [1]: reduced
- cell proliferation capacity (primary FSPC): reduced
